Counter-ions that a name gives are not always drawn.
Tests used:
Type in all cases: biochemical
Conditions in all cases: FDA-approved drug screen; activity compared to DMSO
recombinant PRL-1 = biological target: T1, recombinant PRL-1 (Homo sapiens, UniProt Q93096); assay: In vitro phosphatase assay (DiFMUP hydrolysis), PRL-1; further: test concentration or dose not given here
T1 construct: 6xHis (N, cleaved yes); made in house; host or cells: E. coli One Shot BL21 Star
T1 sequence (Q93096 1-173): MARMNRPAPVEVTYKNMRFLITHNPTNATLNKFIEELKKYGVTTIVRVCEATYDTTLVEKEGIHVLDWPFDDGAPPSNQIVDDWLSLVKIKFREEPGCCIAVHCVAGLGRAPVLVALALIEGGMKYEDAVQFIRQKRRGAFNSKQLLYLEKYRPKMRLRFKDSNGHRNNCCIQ

recombinant PRL-3 = biological target: T2, recombinant PRL-3 (Homo sapiens, UniProt O75365); assay: In vitro phosphatase assay (DiFMUP hydrolysis), PRL-3; further: test concentration or dose not given here
T2 construct: 6xHis (N, cleaved yes); made in house; host or cells: E. coli One Shot BL21 Star

recombinant PRL-2 = biological target: T3, recombinant PRL-2 (Homo sapiens, UniProt Q12974); assay: In vitro phosphatase assay (DiFMUP hydrolysis), PRL-2;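 further: PRL-2 activity read as DiFMUP hydrolysis after 20 min at room temperature with drug, enzyme first pre-reduced at 4 °C for 20 min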
T3 construct: 6xHis (N, cleaved yes); made in house; host or cells: E. coli One Shot BL21 Star
T3 sequence (Q12974 1-167): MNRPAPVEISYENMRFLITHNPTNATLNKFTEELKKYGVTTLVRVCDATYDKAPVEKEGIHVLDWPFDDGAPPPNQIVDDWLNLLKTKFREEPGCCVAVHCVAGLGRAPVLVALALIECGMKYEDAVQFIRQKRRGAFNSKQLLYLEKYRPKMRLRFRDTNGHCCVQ

T2 sequence (O75365 whole entry): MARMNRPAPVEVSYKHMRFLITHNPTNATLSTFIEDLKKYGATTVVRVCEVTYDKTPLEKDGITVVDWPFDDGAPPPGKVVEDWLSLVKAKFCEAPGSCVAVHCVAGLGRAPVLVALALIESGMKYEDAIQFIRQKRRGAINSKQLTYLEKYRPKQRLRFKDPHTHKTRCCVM

| Structure (SMILES) | % Phosphatase Activity (compared to DMSO) PRL-1 (recombinant PRL-1) [%] | % Phosphatase Activity (compared to DMSO) PRL-3 (recombinant PRL-3) [%] | % Phosphatase Activity (compared to DMSO) PRL-2 (recombinant PRL-2) [%] |
| --- | --- | --- | --- |
| Cc1c(Cl)cccc1Nc1ccccc1C(=O)O [Tolfenamic Acid] | 97 | 86 | 86 |
| Cc1ccc(C(=O)c2ccc(CC(=O)O)n2C)cc1 [Tolmetin Sodium] | 95 | 111 | 79 |
| Cc1cccc(N(C)C(=S)Oc2ccc3ccccc3c2)c1 [Tolnaftate] | 98 | 89 | 114 |
| Cc1ccc(C(=O)C(C)CN2CCCCC2)cc1.Cl (stereo not drawn) [Tolperisone HCl] | 91 | 71 | 108 |
| Cc1ccc(O)c([C@H](CCN(C(C)C)C(C)C)c2ccccc2)c1 [Tolterodine tartrate] | 98 | 93 | 110 |
| Cc1cc(-n2c(=O)[nH]c(=O)n(C)c2=O)ccc1Oc1ccc(SC(F)(F)F)cc1 [Toltrazuril] | 88 | 73 | 93 |
| Cc1ccccc1C(=O)Nc1ccc(C(=O)N2CCCC(O)c3cc(Cl)ccc32)c(C)c1 (stereo not drawn) [Tolvaptan] | 97 | 101 | 143 |
| CC1(C)O[C@@H]2[C@@H](CO[C@@]3(COS(N)(=O)=O)OC(C)(C)O[C@@H]23)O1 [Topiramate] | 118 | 99 | 122 |
| CC[C@@]1(O)C(=O)OCc2c1cc1n(c2=O)Cc2cc3c(CN(C)C)c(O)ccc3nc2-1 [Topotecan HCl] | 168 | 140 | 192 |
| CN(C)CCOc1ccc(/C(=C(/CCCl)c2ccccc2)c2ccccc2)cc1 [Toremifene Citrate] | 95 | 103 | 105 |
| Cc1cccc(Nc2ccncc2S(=O)(=O)NC(=O)NC(C)C)c1 [Torsemide] | 99 | 77 | 93 |
| CC(=O)Nc1cccc(-n2c(=O)n(C3CC3)c(=O)c3c(Nc4ccc(I)cc4F)n(C)c(=O)c(C)c32)c1 [Trametinib (GSK1120212)] | 88 | 88 | 112 |
| NC[C@H]1CC[C@H](C(=O)O)CC1 [Tranexamic Acid] | 92 | 96 | 89 |
| COc1ccc(/C=C/C(=O)Nc2ccccc2C(=O)O)cc1OC [Tranilast] | 88 | 82 | 73 |
| O=c1n(CCCN2CCN(c3cccc(Cl)c3)CC2)nc2ccccn12 [Trazodone HCl] | 146 | 93 | 142 |
| Cn1c(=O)cc(N2CCC[C@@H](N)C2)n(Cc2cc(F)ccc2C#N)c1=O [Trelagliptin] | 106 | 107 | 76 |
| CC1=C(/C=C/C(C)=C/C=C/C(C)=C/C(=O)O)C(C)(C)CCC1 [Tretinoin] | 78 | 46 | 77 |

— publication PMC8119466, “A screen of FDA-approved drugs identifies inhibitors of protein tyrosine phosphatase 4A3 (PTP4A3 or PRL-3)” (Scientific Reports, 2021)
